We go through one compound from paper PMC3598812, “Evaluation of Anti-Hyperalgesic and Analgesic Effects of Two Benzodiazepines in Human Experimental Pain: A Randomized Placebo-Controlled Study” (PLoS ONE, 2013).

The term AUC denotes concentration integrated over time. As a reminder, the Cmax is the peak of the concentration-time curve. For orientation: Tmax means the time at which the peak concentration occurs. As a reminder, the half-life is how long it takes for the measured level to halve. High values mean slow decline, low ones rapid decline.

The structures appear in SMILES notation.

This data set is described as follows: Pharmacokinetics of clobazam in plasma (LC-MS/MS). The format is in vivo. The conditions noted are these: human, po, 20 mg, clobazam 20 mg oral, mean (SD).
[1] abbreviates: subgroup (n = 8) with peak plasma level below 180 minutes and at least 200 µg/ml.

In the case of `CN1C(=O)CC(=O)N(c2ccccc2)c2cc(Cl)ccc21` [Clobazam], where the note is “all volunteers (n = 16)”, the AUC stood at 5460 ng·h/mL, the highest level (Cmax) was 370 ng/mL, the Tmax turned out to be 2.28 h and the half-life was 19 h. In addition, under setting [1], the AUC was 6160 ng·h/mL, the peak level (Cmax) was 470 ng/mL, the Tmax was 1.64 h and the half-life was 17.5 h.
